Assay [1] has as its target T1, Alpha-1D adrenergic receptor (Rattus norvegicus, UniProt P23944).
T1 sequence (P23944 whole entry): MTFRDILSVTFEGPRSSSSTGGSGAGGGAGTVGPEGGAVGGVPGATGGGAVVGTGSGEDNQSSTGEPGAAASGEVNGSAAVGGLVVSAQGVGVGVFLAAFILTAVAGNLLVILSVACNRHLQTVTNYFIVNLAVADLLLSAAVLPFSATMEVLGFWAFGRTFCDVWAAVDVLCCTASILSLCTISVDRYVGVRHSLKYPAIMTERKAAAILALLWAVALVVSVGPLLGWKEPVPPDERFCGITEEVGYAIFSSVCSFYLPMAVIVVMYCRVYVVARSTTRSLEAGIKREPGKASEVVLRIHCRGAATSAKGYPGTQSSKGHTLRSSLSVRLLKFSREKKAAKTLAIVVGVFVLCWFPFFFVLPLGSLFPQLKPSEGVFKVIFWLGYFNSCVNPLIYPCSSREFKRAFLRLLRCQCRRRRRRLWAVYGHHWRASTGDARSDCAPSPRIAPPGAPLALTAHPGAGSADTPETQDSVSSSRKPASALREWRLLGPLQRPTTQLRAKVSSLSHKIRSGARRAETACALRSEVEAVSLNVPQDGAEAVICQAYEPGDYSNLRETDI
The experiment in a line: Compound was evaluated for its ability to displace [125I]HEAT binding from rat Alpha-1D adrenergic receptor.

Assay [2] concerns the target T2, Alpha-1A adrenergic receptor (Rattus norvegicus, UniProt P43140).
T2 sequence (P43140 whole entry): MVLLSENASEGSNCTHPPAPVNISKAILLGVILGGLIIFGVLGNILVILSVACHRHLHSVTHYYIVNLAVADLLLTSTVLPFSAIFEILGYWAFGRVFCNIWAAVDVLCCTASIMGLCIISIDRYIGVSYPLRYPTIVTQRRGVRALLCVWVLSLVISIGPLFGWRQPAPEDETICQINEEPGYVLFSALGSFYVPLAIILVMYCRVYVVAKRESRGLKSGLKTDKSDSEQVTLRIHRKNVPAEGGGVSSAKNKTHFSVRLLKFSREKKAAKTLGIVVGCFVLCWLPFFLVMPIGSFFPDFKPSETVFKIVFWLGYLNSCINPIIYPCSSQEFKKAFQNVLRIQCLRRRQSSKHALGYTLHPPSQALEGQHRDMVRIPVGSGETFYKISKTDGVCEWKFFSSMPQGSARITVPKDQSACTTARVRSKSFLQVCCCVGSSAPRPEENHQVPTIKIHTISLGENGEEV
Nature of the assay: Compound was evaluated for its ability to displace [125I]HEAT binding from rat Alpha-1A adrenergic receptor.

Assay [3] concerns the target T3, Alpha-1D adrenergic receptor (Homo sapiens, UniProt P25100).
T3 sequence (P25100 whole entry): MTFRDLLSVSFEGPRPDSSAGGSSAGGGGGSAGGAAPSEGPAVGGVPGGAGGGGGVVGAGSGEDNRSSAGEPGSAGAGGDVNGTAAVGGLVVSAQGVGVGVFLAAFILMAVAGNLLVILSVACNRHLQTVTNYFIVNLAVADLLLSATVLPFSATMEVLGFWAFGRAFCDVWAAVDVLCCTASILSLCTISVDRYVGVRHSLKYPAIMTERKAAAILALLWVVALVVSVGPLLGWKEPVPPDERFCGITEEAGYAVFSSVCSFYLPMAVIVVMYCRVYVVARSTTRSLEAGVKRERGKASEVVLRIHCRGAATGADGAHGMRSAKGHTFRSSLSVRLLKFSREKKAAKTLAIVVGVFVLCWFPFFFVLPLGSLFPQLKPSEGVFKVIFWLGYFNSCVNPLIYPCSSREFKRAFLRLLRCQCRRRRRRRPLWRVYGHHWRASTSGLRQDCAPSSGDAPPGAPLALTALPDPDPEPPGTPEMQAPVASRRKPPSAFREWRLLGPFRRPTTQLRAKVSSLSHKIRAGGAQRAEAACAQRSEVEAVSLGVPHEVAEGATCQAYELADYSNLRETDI
The experiment in a line: Compound was tested for binding affinity utilizing cloned receptor binding assays by using [125 I]HEAT as radioligand to the human Alpha-1D adrenergic receptor.

Assay [4] concerns the target T4, Alpha-1A adrenergic receptor (Homo sapiens, UniProt P35348).
T4 sequence (P35348 whole entry): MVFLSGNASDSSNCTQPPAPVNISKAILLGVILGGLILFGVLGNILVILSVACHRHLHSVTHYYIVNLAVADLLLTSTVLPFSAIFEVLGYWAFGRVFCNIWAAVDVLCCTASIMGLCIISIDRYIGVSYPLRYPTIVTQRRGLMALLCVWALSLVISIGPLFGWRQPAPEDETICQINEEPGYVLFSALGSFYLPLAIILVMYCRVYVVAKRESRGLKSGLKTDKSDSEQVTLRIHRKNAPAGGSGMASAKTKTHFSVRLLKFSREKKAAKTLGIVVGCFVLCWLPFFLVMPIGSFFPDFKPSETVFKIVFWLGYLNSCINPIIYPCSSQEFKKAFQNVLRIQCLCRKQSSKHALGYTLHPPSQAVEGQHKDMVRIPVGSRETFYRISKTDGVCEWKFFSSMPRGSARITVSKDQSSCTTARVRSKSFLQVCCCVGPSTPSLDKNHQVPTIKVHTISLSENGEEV
The experiment in a line: Compound was tested for binding affinity utilizing cloned receptor binding assays by using [125 I]HEAT as radioligand to the human Alpha-1A adrenergic receptor.

The target of assay [5] is T5, Alpha-1B adrenergic receptor (Rattus norvegicus, UniProt P15823).
T5 sequence (P15823 whole entry): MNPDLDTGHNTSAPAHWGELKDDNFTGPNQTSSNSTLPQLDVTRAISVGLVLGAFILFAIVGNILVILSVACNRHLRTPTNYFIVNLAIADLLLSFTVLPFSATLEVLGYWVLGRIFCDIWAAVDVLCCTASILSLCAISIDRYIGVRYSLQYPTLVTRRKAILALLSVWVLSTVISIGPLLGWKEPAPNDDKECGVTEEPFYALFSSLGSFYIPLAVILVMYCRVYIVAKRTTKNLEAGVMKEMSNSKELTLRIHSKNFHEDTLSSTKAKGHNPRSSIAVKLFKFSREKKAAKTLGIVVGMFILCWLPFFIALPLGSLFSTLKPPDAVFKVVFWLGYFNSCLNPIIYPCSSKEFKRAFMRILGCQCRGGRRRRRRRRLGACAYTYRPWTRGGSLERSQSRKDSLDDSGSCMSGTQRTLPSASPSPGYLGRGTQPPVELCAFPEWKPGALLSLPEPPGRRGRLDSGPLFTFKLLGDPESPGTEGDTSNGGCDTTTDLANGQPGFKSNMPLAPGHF
The experiment in a line: Compound was tested for the tissue binding affinity using [3H]- Prazosin as radioligand to the rat liver Alpha-1B adrenergic receptor.

Assay [6] concerns the target T5, Alpha-1B adrenergic receptor. The experiment in a line: Compound was tested for the tissue binding affinity using [3H]- Prazosin as radioligand to the rat spleen Alpha-1B adrenergic receptor subtype. It counts as tissue-based.
Assay [7] shares this target. The experiment in a line: Compound was evaluated for its ability to displace [125I]HEAT binding from rat Alpha-1B adrenergic receptor.
Assay [8] addresses T6, Alpha-1B adrenergic receptor (Homo sapiens, UniProt P35368).
T6 sequence (P35368 whole entry): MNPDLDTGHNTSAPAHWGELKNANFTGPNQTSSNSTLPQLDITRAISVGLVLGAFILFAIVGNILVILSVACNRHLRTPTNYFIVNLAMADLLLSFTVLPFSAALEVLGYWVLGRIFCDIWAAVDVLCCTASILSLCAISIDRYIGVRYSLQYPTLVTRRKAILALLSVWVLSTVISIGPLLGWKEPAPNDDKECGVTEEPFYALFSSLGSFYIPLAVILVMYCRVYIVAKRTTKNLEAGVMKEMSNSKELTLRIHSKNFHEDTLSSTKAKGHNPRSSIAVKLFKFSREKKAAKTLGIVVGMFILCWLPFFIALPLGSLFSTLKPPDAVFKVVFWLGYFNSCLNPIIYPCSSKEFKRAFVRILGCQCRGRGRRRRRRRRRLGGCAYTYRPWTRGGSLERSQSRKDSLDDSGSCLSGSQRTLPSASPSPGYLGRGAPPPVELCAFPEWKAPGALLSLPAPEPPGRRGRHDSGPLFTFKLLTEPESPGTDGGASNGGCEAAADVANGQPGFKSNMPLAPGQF
Nature of the assay: Compound was tested for the tissue binding affinity using [125I]- HEAT as radioligand to the human aorta Alpha-1B adrenergic receptor subtype. The assay is classed as tissue-based.

Assay [9] has as its target T6, Alpha-1B adrenergic receptor. Nature of the assay: Compound was tested for binding affinity utilizing cloned receptor binding assays by using [125 I]HEAT as radioligand to the human Alpha-1B adrenergic receptor.
Assay [10] addresses T4, Alpha-1A adrenergic receptor. The experiment in a line: Compound was tested for the tissue binding affinity using [3H]- Prazosin as radioligand to the human prostate Alpha-1A adrenergic receptor subtype.
Assay [11] addresses T2, Alpha-1A adrenergic receptor. The experiment in a line: Compound was tested for the tissue binding affinity using [3H]- Prazosin as radioligand to the rat prostate Alpha-1A adrenergic receptor subtype.
Assay [12] has as its target T5, Alpha-1B adrenergic receptor. Nature of the assay: Compound was tested for the tissue binding affinity using [3H]- Prazosin as radioligand to the rat spleen Alpha-1B adrenergic receptor subtype. It counts as tissue-based.
Assay [13] deals with T4, Alpha-1A adrenergic receptor. The experiment in a line: Compound was tested for the tissue binding affinity using [3H]- Prazosin as radioligand to the human prostate Alpha-1A adrenergic receptor subtype.
For assay [14], the target named is T6, Alpha-1B adrenergic receptor. Nature of the assay: Compound was tested for its binding affinity utilizing cloned receptor binding assays by using [125 I]HEAT as radioligand to the human Alpha-1B adrenergic receptor (n >= 2).
In assay [15] the target is T3, Alpha-1D adrenergic receptor. The experiment in a line: Compound was tested for its binding affinity utilizing cloned receptor binding assays by using [125 I]HEAT as radioligand to the human Alpha-1D adrenergic receptor.
Assay [16] deals with T2, Alpha-1A adrenergic receptor. The experiment in a line: Compound was tested for the tissue binding affinity using [3H]- Prazosin as radioligand to the rat prostate Alpha-1A adrenergic receptor subtype.
Assay [17] deals with T4, Alpha-1A adrenergic receptor. Nature of the assay: Compound was tested for its binding affinity utilizing cloned receptor binding assays by using [125 I]HEAT as radioligand to the human Alpha-1A adrenergic receptor.
Assay [18] addresses T6, Alpha-1B adrenergic receptor. The experiment in a line: Compound was tested for the tissue binding affinity using [125I]- HEAT as radioligand to the human aorta Alpha-1B adrenergic receptor. It counts as tissue-based.
The target is the same in assay [19]. The experiment in a line: Compound was tested for its binding affinity utilizing cloned receptor binding assays by using [125 I]HEAT as radioligand to the human Alpha-1B adrenergic receptor.

Consider `COc1cc2nc(N3CCN[C@H](C(=O)NC(C)(C)C)C3)nc(N)c2cc1OC`, for which the Ki (usually a dissociation constant, usually derived from enzyme kinetics or from competition with a known ligand) in [1] was determined as 630 nM; in [2], 510 nM; in assay [3] it was 250 nM; in assay [4], 830 nM; in [7], 1500 nM; in assay [9] it was 25 nM. The IC50 (commonly the concentration that gives 50% inhibition) in assay [5] amounted to 2700 nM; in assay [6] it was 1500 nM; in [8], 31 nM; in assay [10], 1700 nM.

For `COc1cc2nc(N3CCN(C(=O)c4ccco4)[C@H](C(=O)NC(C)(C)C)C3)nc(N)c2cc1OC`, the IC50 in [11] is 2000 nM; in assay [5] it was 15 nM; in assay [12], 14 nM; in assay [13], 1900 nM. Also, the Ki in assay [1] amounted to 78 nM; in [2], 580 nM; in [3] it was 73 nM; in [4], 1700 nM; in assay [7], 7 nM; in [9], 3.5 nM.

In the case of `COc1ccccc1N1CCN(CCN2C(=O)CC3(CCCC3)CC2=O)CC1` [BMY-7378], the results for the Ki in assay [7] and in assay [14] were 328 nM and 191 nM, respectively.

`COc1cc2nc(N3CCN(C(=O)OCc4ccccc4)[C@H](C(=O)NC(C)(C)C)C3)nc(N)c2cc1OC` [L-765314]: the Ki is 34 nM in assay [15]; 50 nM in assay [1]; 500 nM in [2]; 420 nM in assay [17]; 5.4 nM in assay [7]; 2 nM in assay [19]. Further, the IC50 amounted to 340 nM in [16]; 9.3 nM in assay [5]; 9.3 nM in [6]; 5800 nM in [18]; 8.8 nM in assay [8]; 590 nM in [13].

Regarding `COc1cc2nc(N3CCN(C(=O)C4CCCO4)CC3)nc(N)c2cc1OC` (configuration not stated) [TERAZOSIN], the Ki in [15] turned out to be 2 nM; in assay [1] it was 3.4 nM; in [7], 1.9 nM.

(Values after ChEMBL document CHEMBL1131601, “4-Amino-2-[4-[1-(benzyloxycarbonyl)-2(S)- [[(1,1-dimethylethyl)amino]carbonyl]-piperazinyl]-6, 7-dimethoxyquinazoline (L-765,314): a potent and selective alpha1b adrenergic receptor antagonist” (J Med Chem, 1998).)
